Results: paper PMC5874177 (Journal of the American Chemical Society, 2018)
Where two headings read alike, the source gives them in different places.

Assays:
[1] = molecular target: T1, tryptophan 2,3-dioxygenase (TDO) (Homo sapiens, UniProt P48775); type: biochemical
[2] = molecular target: T1, tryptophan 2,3-dioxygenase (TDO); type: biochemical; remark: listed apart in the source

T1 sequence (P48775 whole entry): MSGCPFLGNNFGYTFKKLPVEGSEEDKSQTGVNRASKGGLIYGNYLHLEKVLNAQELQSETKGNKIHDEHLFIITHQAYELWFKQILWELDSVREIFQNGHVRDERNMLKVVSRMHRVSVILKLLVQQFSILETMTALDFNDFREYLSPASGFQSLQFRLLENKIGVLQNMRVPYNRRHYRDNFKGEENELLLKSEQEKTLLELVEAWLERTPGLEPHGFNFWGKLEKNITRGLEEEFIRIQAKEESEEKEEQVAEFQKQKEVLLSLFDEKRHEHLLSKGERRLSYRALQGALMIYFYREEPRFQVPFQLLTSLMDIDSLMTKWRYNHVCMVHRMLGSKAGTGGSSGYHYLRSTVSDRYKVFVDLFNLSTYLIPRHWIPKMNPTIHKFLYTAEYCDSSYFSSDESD

Ki [2] [µM] | SMILES | Ki [1] [µM]
 | O=C(O)C(O)Cc1c[nH]c2ccccc12 (centres unmarked) [compound 2, probe 2] | 444 ± 32
320 ± 43 | CC(Cc1c[nH]c2ccccc12)C(=O)O (centres unmarked) [compound 1, probe 1] | 
